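Five concentrations, 48 hours, 96-well plates. At the GI50, growth is halved.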 Activity calls are given as the source filed them. Rule as the data show it: active = GI50 up to about 1.1 µM and inactive = higher.
Legend:
Experiment in all cases: DTP human tumour cell line panel, 48 h
[1] = test system: SF-295
[2] = test system: SF-539
[3] = test system: DMS-114
[4] = test system: NCI-H460
[5] = test system: TK-10
[6] = test system: K562
[7] = test system: Malme-3M
[8] = test system: SK-MEL-2
[9] = test system: OVCAR-3
[10] = test system: SN12C
[11] = test system: HCT-15
[12] = test system: KM12
[13] = test system: COLO 205
[14] = test system: HOP-92
[15] = test system: SNB-78
[16] = test system: OVCAR-5
[17] = test system: HL-60
[18] = test system: HOP-62
[19] = test system: DLD-1
[20] = test system: IGROV-1
[21] = test system: OVCAR-4
[22] = test system: SW-620
[23] = test system: RXF 631
[24] = test system: UACC-62
[25] = test system: RPMI-8226
[26] = test system: 786-0
[27] = test system: U-251
[28] = test system: HCC 2998
[29] = test system: KM-20L2
[30] = test system: SK-MEL-28
[31] = test system: NCI-H226
[32] = test system: UO-31
[33] = test system: SR
[34] = test system: NCI-H522
[35] = test system: SF-268
[36] = test system: SNB-75
[37] = test system: CAKI-1
[38] = test system: A549
[39] = test system: M14
[40] = test system: RXF 393
[41] = test system: SNB-19
[42] = test system: HCT-116
[43] = test system: ACHN
[44] = test system: OVCAR-8
[45] = test system: XF498
[46] = test system: LOX IMVI
[47] = test system: NCI-H23
[48] = test system: SK-MEL-5
[49] = test system: DMS-273
[50] = test system: CCRF-CEM
[51] = test system: MOLT-4
[52] = test system: EKVX
[53] = test system: SK-OV-3
[54] = test system: HT-29
[55] = test system: UACC-257
[56] = test system: LXFL 529
[57] = test system: M19-MEL
[58] = test system: A498
[59] = test system: HOP-18

Measured: GI50

Cn1cc(C(=O)C2CCCCC2)ccc1=O
inactive: [1] > 100 µM | [2] > 100 µM | [3] > 100 µM | [4] > 100 µM | [5] > 100 µM | [6] > 100 µM | [7] > 100 µM | [8] > 100 µM | [9] > 100 µM | [10] > 100 µM | [12] > 100 µM | [13] > 100 µM | [14] > 100 µM | [15] > 100 µM | [16] > 100 µM | [17] > 100 µM | [18] > 100 µM | [19] > 100 µM | [20] > 100 µM | [21] > 100 µM | [22] > 100 µM | [23] > 100 µM | [24] > 100 µM | [25] > 100 µM | [26] > 100 µM | [27] > 100 µM | [28] > 100 µM | [29] > 100 µM | [30] > 100 µM | [31] > 100 µM | [32] > 100 µM | [33] > 100 µM | [34] > 100 µM | [35] > 100 µM | [36] > 100 µM | [37] > 100 µM | [38] > 100 µM | [39] > 100 µM | [40] > 100 µM | [41] > 100 µM | [42] > 100 µM | [43] > 100 µM | [44] > 100 µM | [45] > 100 µM | [46] > 100 µM | [47] > 100 µM | [48] > 100 µM | [49] > 100 µM | [50] > 100 µM | [51] > 100 µM | [52] > 100 µM | [53] > 100 µM | [54] > 100 µM
> 100 µM: [11]

COC(=O)C1=Cc2cc(OC)c(OC)c(OC)c2[C@H](c2cc(OC)c(OC)c(OC)c2)C1C(=O)OC (stereo partly specified)
inactive: [1] > 100 µM | [2] > 100 µM | [3] > 100 µM | [4] > 100 µM | [5] > 100 µM | [6] > 100 µM | [7] > 100 µM | [9] > 100 µM | [55] > 100 µM | [10] > 100 µM | [12] > 100 µM | [13] > 100 µM | [14] 1.73 µM | [15] > 100 µM | [16] > 100 µM | [17] > 100 µM | [18] > 100 µM | [56] > 100 µM | [19] > 100 µM | [20] > 100 µM | [21] > 100 µM | [22] > 100 µM | [23] > 100 µM | [24] > 100 µM | [25] > 100 µM | [26] > 100 µM | [27] > 100 µM | [57] > 100 µM | [28] > 100 µM | [29] > 100 µM | [30] > 100 µM | [31] > 100 µM | [32] > 100 µM | [34] > 100 µM | [35] > 100 µM | [36] > 100 µM | [37] > 100 µM | [38] > 100 µM | [39] > 100 µM | [40] > 100 µM | [41] > 100 µM | [42] > 100 µM | [43] > 100 µM | [44] > 100 µM | [45] > 100 µM | [58] > 100 µM | [46] > 100 µM | [47] > 100 µM | [48] > 100 µM | [49] > 100 µM | [50] > 100 µM | [51] > 100 µM | [52] > 100 µM | [53] > 100 µM | [54] > 100 µM
> 100 µM: [11]

Nc1ccn(CC(CO)CC(c2ccccc2)P(=O)(O)O)c(=O)n1 (stereo unspecified)
inactive: [1] > 100 µM | [2] > 100 µM | [3] > 100 µM | [4] > 100 µM | [5] > 100 µM | [6] > 100 µM | [7] > 100 µM | [8] > 100 µM | [9] > 100 µM | [55] > 100 µM | [10] > 100 µM | [12] > 100 µM | [13] > 100 µM | [14] > 100 µM | [15] > 100 µM | [16] > 100 µM | [17] > 100 µM | [18] > 100 µM | [56] > 100 µM | [19] > 100 µM | [20] > 100 µM | [22] > 100 µM | [24] > 100 µM | [25] > 100 µM | [26] > 100 µM | [57] > 100 µM | [28] > 100 µM | [29] > 100 µM | [30] > 100 µM | [31] > 100 µM | [32] > 100 µM | [34] > 100 µM | [35] > 100 µM | [37] > 100 µM | [38] > 100 µM | [39] > 100 µM | [40] > 100 µM | [41] > 100 µM | [42] > 100 µM | [43] > 100 µM | [44] > 100 µM | [45] > 100 µM | [58] > 100 µM | [46] > 100 µM | [47] > 100 µM | [48] > 100 µM | [49] > 100 µM | [50] > 100 µM | [51] > 100 µM | [52] > 100 µM | [53] > 100 µM | [54] > 100 µM
active: [59] < 0.01 µM
> 100 µM: [11]

NC1=NS(=O)(=O)N=C(N)C1=Cc1ccc([N+](=O)[O-])o1
inactive: [1] 25.4 µM | [2] 18.3 µM | [3] 17.7 µM | [4] 17.9 µM | [5] 18.6 µM | [6] 6.01 µM | [7] 16 µM | [8] 16.1 µM | [9] 18.1 µM | [55] 15.5 µM | [10] 16.5 µM | [12] 18.5 µM | [13] 15.7 µM | [14] 13.8 µM | [15] 19.6 µM | [16] 18.9 µM | [17] 5.51 µM | [56] 17.1 µM | [19] 17.1 µM | [20] 18.2 µM | [21] 19.9 µM | [22] 18.3 µM | [24] 16.4 µM | [59] 18 µM | [25] 17.1 µM | [26] 17.1 µM | [27] 50.8 µM | [57] 16.5 µM | [28] 22.1 µM | [29] 16.6 µM | [30] 16 µM | [31] 30.8 µM | [32] 17.9 µM | [33] 3.73 µM | [34] 17.7 µM | [35] 17.5 µM | [36] 16.3 µM | [38] 52 µM | [39] 14 µM | [40] 18.8 µM | [41] 32.8 µM | [42] 15.4 µM | [43] 16.9 µM | [44] 17.3 µM | [45] 18.7 µM | [46] 17.2 µM | [47] 17.3 µM | [48] 15.3 µM | [49] 16.7 µM | [50] 9.33 µM | [51] 12.6 µM | [52] 17.9 µM | [53] 35 µM | [54] 18.2 µM
16.8 µM: [11]

COC(=O)N/N=C(\c1nc2ccc(Cl)cc2nc1O)C(O)c1ccc([N+](=O)[O-])cc1 (stereo unspecified)
> 100 µM: [11]
inactive: [1] > 100 µM | [2] > 100 µM | [3] > 100 µM | [4] > 100 µM | [6] > 100 µM | [7] > 100 µM | [9] > 100 µM | [55] > 100 µM | [10] > 100 µM | [12] > 100 µM | [13] > 100 µM | [14] > 100 µM | [15] > 100 µM | [16] > 100 µM | [17] > 100 µM | [18] > 100 µM | [56] > 100 µM | [19] > 100 µM | [20] > 100 µM | [21] > 100 µM | [22] > 100 µM | [23] > 100 µM | [24] > 100 µM | [25] > 100 µM | [26] > 100 µM | [27] > 100 µM | [57] > 100 µM | [28] > 100 µM | [29] > 100 µM | [30] > 100 µM | [31] > 100 µM | [32] > 100 µM | [33] 30.5 µM | [34] > 100 µM | [35] > 100 µM | [36] > 100 µM | [37] > 100 µM | [38] > 100 µM | [39] > 100 µM | [40] > 100 µM | [41] > 100 µM | [42] > 100 µM | [44] > 100 µM | [46] > 100 µM | [47] > 100 µM | [48] > 100 µM | [49] > 100 µM | [50] 89.7 µM | [51] 98.4 µM | [53] > 100 µM | [54] > 100 µM

Source: ChEMBL document CHEMBL1201862, “PubChem BioAssay data set” (2004)
